Reference: ChEMBL document CHEMBL5390218, “Benzimidazole derivatives as tubulin polymerization inhibitors: Design, synthesis and in vitro cytotoxicity studies” (Bioorg Med Chem Lett, 2023)
Calls of active or inactive are those of the source. The rule behind the calls is not given here.

How the values were obtained:
[1] = biological target: Tubulin; test: (§1) Inhibition of tubulin polymerization (unknown origin) incubated for 1 hr; assay type: protein-complex assay, Homo sapiens
[2] = biological target: T1, Tubulin (Homo sapiens) (UniProt P68371+Q9H4B7+P0DPH7+P68366+Q13509+Q71U36+P04350+Q3ZCM7+P07437+P68363+Q9BQE3+Q6PEY2+Q13885+Q9BVA1+Q9BUF5); test: as §1; assay type: protein-complex assay; settings: dose 0.75-12 µM
[3] = test system: SK-MEL-28; test: Induction of cell cycle arrest in human SK-MEL-28 cells assessed as accumulation of cells at S phase at 2.5 uM measured after 48 hrs by PI staining based flow cytometry (reference value: 16.5%); assay type: functional
[4] = test system: SK-MEL-28; test: Anticancer activity against human SK-MEL-28 cells assessed as inhibition in cell growth measured after 72 hrs by MTT assay; assay type: functional, cell-based; settings: SK-MEL-28, 72 h
[5] = test system: HCT-116; test: Anticancer activity against human HCT-116 cells assessed as inhibition in cell growth measured after 72 hrs by MTT assay; assay type: functional, cell-based; settings: HCT-116, 72 h
[6] = test system: SK-MEL-28; test: Induction of mitochondrial membrane potential changes in human SK-MEL-28 cells assessed as J-aggregate level by measuring red fluorescence intensity at 1 uM incubated for 48 hrs by JC-1 staining based analysis (reference value: 98.9%); assay type: functional
[7] = test system: SK-MEL-28; test: Induction of ROS generation in human SK-MEL-28 cells by DCFDA staining based analysis; assay type: functional, cell-based; settings: dose 1-5 µM
[8] = test system: SK-MEL-28; test: Induction of apoptosis in human SK-MEL-28 cells assessed as late apoptotic cells at 5 uM incubated for 24 hrs by Annexin V-FITC/PI dual staining based flow cytometry analysis (reference value: 0.1%); assay type: functional
[9] = test system: SK-MEL-28; test: Induction of cell cycle arrest in human SK-MEL-28 cells assessed as accumulation of cells at G0-G1 phase at 2.5 uM measured after 48 hrs by PI staining based flow cytometry (reference value: 74.32%); assay type: functional
[10] = biological target: T1, Tubulin (Homo sapiens); test: Inhibition of tubulin polymerization (unknown origin) at 12 uM incubated for 1 hr relative to control; assay type: protein-complex assay
[11] = Cytotoxicity against NRK-52E cells assessed as inhibition in cell growth measured after 72 hrs by MTT assay; assay type: toxicity, cell-based; settings: rat
[12] = Selectivity index, ratio of IC50 for NRK-52E cells to ratio of IC50 for human MCF7 cells; assay type: toxicity; settings: rat (NRK-52E), NRK-52E cells versus MCF7 cells, read-out: Selectivity Index
[13] = test system: SK-MEL-28; test: Induction of morphological changes in human SK-MEL-28 cells assessed as bright pyknotic nuclei at 1 to 5 uM measured after 48 hrs DAPI staining based analysis; assay type: functional, cell-based; settings: dose 1-5 µM
[14] = test system: MCF7; test: Anticancer activity against human MCF7 cells assessed as inhibition in cell growth measured after 72 hrs by MTT assay; assay type: functional, cell-based; settings: MCF7, 72 h
[15] = Selectivity index, ratio of IC50 for NRK-52E cells to ratio of IC50 for human A549 cells; assay type: toxicity; settings: rat (NRK-52E), NRK-52E cells versus A549 cells, read-out: Selectivity Index
[16] = biological target: T1, Tubulin (Homo sapiens); test: Inhibition of tubulin polymerization (unknown origin) at 1.5 uM incubated for 1 hr relative to control; assay type: protein-complex assay
[17] = test system: SK-MEL-28; test: Induction of apoptosis in human SK-MEL-28 cells assessed as live cells at 2.5 uM incubated for 24 hrs by Annexin V-FITC/PI dual staining based flow cytometry analysis (reference value: 99.9%); assay type: functional
[18] = test system: SK-MEL-28; test: Induction of apoptosis in human SK-MEL-28 cells assessed as live cells at 1 uM incubated for 24 hrs by Annexin V-FITC/PI dual staining based flow cytometry analysis (reference value: 99.9%); assay type: functional
[19] = Selectivity index, ratio of IC50 for NRK-52E cells to ratio of IC50 for human HCT-116 cells; assay type: toxicity; settings: rat (NRK-52E), NRK-52E cells versus HCT-116 cells, read-out: Selectivity Index
[20] = test system: SK-MEL-28; test: Induction of cell cycle arrest in human SK-MEL-28 cells assessed as accumulation of cells at G0-G1 phase at 5 uM measured after 48 hrs by PI staining based flow cytometry (reference value: 74.32%); assay type: functional
[21] = test system: SK-MEL-28; test: Induction of morphological changes in human SK-MEL-28 cells assessed as chromatin condensation by ethidium bromide/acridine orange staining based analysis; assay type: functional, cell-based; settings: dose 1-5 µM
[22] = test system: A549; test: Anticancer activity against human A549 cells assessed as inhibition in cell growth measured after 72 hrs by MTT assay; assay type: functional, cell-based; settings: A549, 72 h
[23] = test system: SK-MEL-28; test: Induction of mitochondrial membrane potential changes in human SK-MEL-28 cells assessed as J-aggregate level by measuring red fluorescence intensity at 5 uM incubated for 48 hrs by JC-1 staining based analysis (reference value: 98.9%); assay type: functional
[24] = Selectivity index, ratio of IC50 for NRK-52E cells to ratio of IC50 for mouse B16-F10 cells; assay type: toxicity; settings: NRK-52E cells versus B16-F10 cells, read-out: Selectivity Index
[25] = biological target: T1, Tubulin (Homo sapiens); test: Inhibition of tubulin polymerization (unknown origin) at 6 uM incubated for 1 hr relative to control; assay type: protein-complex assay
[26] = test system: B16-F10; test: Anticancer activity against mouse B16-F10 cells assessed as inhibition in cell growth measured after 72 hrs by MTT assay; assay type: functional, cell-based; settings: B16-F10, 72 h
[27] = test system: SK-MEL-28; test: Induction of cell cycle arrest in human SK-MEL-28 cells assessed as accumulation of cells at G0-G1 phase at 1 uM measured after 48 hrs by PI staining based flow cytometry (reference value: 74.32%); assay type: functional
[28] = test system: SK-MEL-28; test: Induction of mitochondrial membrane potential depolarization in human SK-MEL-28 cells assessed as J-monomer level by measuring green fluorescence intensity at 1 uM incubated for 48 hrs by JC-1 staining based analysis (reference value: 0.8%); assay type: functional
[29] = test system: SK-MEL-28; test: Induction of morphological changes in human SK-MEL-28 cells assessed as appearance of nuclei at 1 to 5 uM measured after 48 hrs DAPI staining based analysis; assay type: functional, cell-based; settings: dose 1-5 µM
[30] = test system: SK-MEL-28; test: Induction of mitochondrial membrane potential depolarization in human SK-MEL-28 cells assessed as J-monomer level by measuring green fluorescence intensity at 5 uM incubated for 48 hrs by JC-1 staining based analysis (reference value: 0.8%); assay type: functional
[31] = test system: SK-MEL-28; test: Induction of cell cycle arrest in human SK-MEL-28 cells assessed as accumulation of cells at S phase at 1 uM measured after 48 hrs by PI staining based flow cytometry (reference value: 16.5%); assay type: functional
[32] = test system: SK-MEL-28; test: Induction of morphological changes in human SK-MEL-28 cells assessed as production of apoptotic bodies by ethidium bromide/acridine orange staining based analysis; assay type: functional, cell-based; settings: dose 1-5 µM
[33] = test system: SK-MEL-28; test: Induction of apoptosis in human SK-MEL-28 cells assessed as late apoptotic cells at 1 uM incubated for 24 hrs by Annexin V-FITC/PI dual staining based flow cytometry analysis (reference value: 0.1%); assay type: functional
[34] = test system: SK-MEL-28; test: Induction of cell cycle arrest in human SK-MEL-28 cells assessed as accumulation of cells at S phase at 5 uM measured after 48 hrs by PI staining based flow cytometry (reference value: 16.5%); assay type: functional
[35] = test system: SK-MEL-28; test: Induction of morphological changes in human SK-MEL-28 cells assessed as chromatin condensation at 1 to 5 uM measured after 48 hrs DAPI staining based analysis; assay type: functional, cell-based; settings: dose 1-5 µM
[36] = biological target: T1, Tubulin (Homo sapiens); test: Inhibition of tubulin polymerization (unknown origin) at 3 uM incubated for 1 hr relative to control; assay type: protein-complex assay

COc1cc(-c2nc3cc(F)ccc3[nH]2)ccc1OCC(=O)N1CCc2ccccc21
IC50 [1]: 5.65 µM | inhibition [2]: Dose-Dependent Effect | Activity [3]: 23.71% | IC50 [4]: 2.69 µM | IC50 [5]: 6.98 µM | Activity [6]: 97.9% | Activity [7]: Dose-Dependent Effect | Activity [8]: 35.1% | Activity [9]: 51.45% | inhibition [10]: 64.1% | IC50 at 72 h [11]: 53.8 µM | selectivity ratio [12]: 3 | Activity [13]: Active | IC50 [14]: 17.9 µM | selectivity ratio [15]: 14 | inhibition [16]: 35.1% | Activity [17]: 52.5% | Activity [18]: 28.5% | selectivity ratio [19]: 7.7 | Activity [20]: 49.28% | Activity [21]: Dose-Dependent Effect | IC50 [22]: 3.84 µM | Activity [23]: 85.1% | selectivity ratio [24]: 17.4 | inhibition [25]: 52.4% | IC50 [26]: 3.1 µM | Activity [27]: 61.71% | Activity [28]: 2% | Activity [29]: Active | Activity [30]: 14.9% | Activity [31]: 22.3% | Activity [32]: Dose-Dependent Effect | Activity [33]: 10.7% | Activity [34]: 25.66% | Activity [35]: Active | inhibition [36]: 47.4%
